# From patent US20230137943A1, “PHOTOPROXIMITY PROFILING OF PROTEIN-PROTEIN INTERACTIONS IN CELLS” (The University of Chicago, priority 2019, published 2023)
# Target: T1, KEAP1-SNAP protein (Homo sapiens, UniProt P16455+Q14145, A127T/A154D/C150Q/C62A/E30R/G131K/G132T/G153L/K125A/K32I/L33F/M134L/N157G/Q115S/Q116H/R128A/R135S/S151G/S152D/S159E)
# T1 construct: expressed in transfected cells; host or cells: HEK293T, lentiviral transduction with pDC-006, blasticidin selection
# Test: Probe dose response: labeling of KEAP1-SNAP fusion in live cells (Western blot)
# Format: cell-based
# Method: PP1 close response and viability assay: Dose response—Each well of a 6-well plate was seeded with 300,000 HEK293T cells stably expressing either SNAP-FLAG or KEAP-SNAP. After reaching ˜90% confluency the growth media was removed, cells washed with DPBS, and treated with varying concentrations (0, 0.5, 1, 5, 15, 45 μM) of photoproximity probe PP1 in 500 μL serum-free DMEM for 2 hours at 37° C. Post treatment, media was aspirated and non-reacted probe washed out with 3 mL full DMEM over 40 minutes, changing the media twice. Cells were harvested, washed, and lysed in DPBS containing protease inhibitor using a tip sonicator. Lysate was normalized to 1 mg/mL then diluted with loading buffer and run on SDS-PAGE gel that was transferred by western blot to nitrocellulose. The nitrocellulose membrane was stained for biotin and Flag-Tag using streptavidin IR dye (Li-cor #926-32230; Li-cor Biosciences, Lincoln, Nebr., United States of America) and anti-Flag (Sigma #F3165, Sigma-Aldrich, St. Louis, Mo., United States of America; Li-cor #926-68072, Li-cor Biosciences, Lincoln, Nebr., United States of America). Fluorescence images were collected using an Odyssey infrared imager (Li-cor Biosciences, Lincoln, Nebr., United States of America).
# Both C- and N-terminal SNAP-Tag fusions of full-length, human KEAP1, in each case separated by a short linker were cloned. […] Both C- and N-terminal SNAP fusions were functional, as indicated by dose-dependent labeling with PP1 in live cells. […] Finally, it was expected that identification of probe-labeled binding partners, and therefore proteins proximal to KEAP1 in cells, would be improved by quantitative proteomic differentiation of enriched vs. background proteins. Therefore, SILAC-labeled cultures expressing both N-terminal (referred to as SNAP-KEAP1) and C-terminal (referred to as KEAP1-SNAP) fusion proteins with light and heavy arginine and lysine were prepared. Matched cultures of heavy and light cells, each expressing the same SNAP-KEAP1 or KEAP1-SNAP construct, were then treated with PP1 probe or vehicle for 2 hr. […]
# T1 sequence (Q14145+P16455 fused with the stated changes): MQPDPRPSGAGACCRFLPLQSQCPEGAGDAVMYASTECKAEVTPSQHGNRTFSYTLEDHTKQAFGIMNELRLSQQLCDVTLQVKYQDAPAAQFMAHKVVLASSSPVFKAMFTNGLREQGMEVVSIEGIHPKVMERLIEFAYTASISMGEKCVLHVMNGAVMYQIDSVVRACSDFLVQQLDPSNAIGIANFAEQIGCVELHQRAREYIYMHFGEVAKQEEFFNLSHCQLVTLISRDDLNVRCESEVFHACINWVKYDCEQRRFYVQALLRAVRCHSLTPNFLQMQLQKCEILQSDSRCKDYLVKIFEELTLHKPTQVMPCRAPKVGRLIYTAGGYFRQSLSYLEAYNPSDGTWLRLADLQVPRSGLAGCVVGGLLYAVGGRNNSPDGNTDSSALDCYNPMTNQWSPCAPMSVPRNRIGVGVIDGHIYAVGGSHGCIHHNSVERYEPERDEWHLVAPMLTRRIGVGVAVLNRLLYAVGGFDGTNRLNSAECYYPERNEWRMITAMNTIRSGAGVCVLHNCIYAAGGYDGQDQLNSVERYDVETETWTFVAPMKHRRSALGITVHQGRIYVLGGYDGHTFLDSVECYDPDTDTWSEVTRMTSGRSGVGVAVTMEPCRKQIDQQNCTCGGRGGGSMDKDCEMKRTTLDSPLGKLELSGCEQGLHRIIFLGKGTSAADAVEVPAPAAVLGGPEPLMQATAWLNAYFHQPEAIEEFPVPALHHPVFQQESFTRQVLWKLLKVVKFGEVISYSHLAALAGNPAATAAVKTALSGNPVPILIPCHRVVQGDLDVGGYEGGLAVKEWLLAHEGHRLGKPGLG
"Concentration at which protein is labeled (AC1 0-50 μM, 1 or 2 hours, live HEK293T cells)","Cell permeability (AC1, biotin-labeling of SNAP-FLAG-KEAP1 in live HEK293T cells)","EC50 of KEAP1-SNAP fusion labeling (PP1, live HEK293T cells, 2 hr, not irradiated)",Structure (SMILES)
low micromolar concentrations,cell permeable,–,COc1cc(COC(=O)NC(CCCCNC(=O)CCC2(C)N=N2)C(=O)NCCCCC2SCC3NC(=O)NC32)c([N+](=O)[O-])cc1OCCCC(=O)NCc1ccc(COc2nc(N)nc3[nH]cnc23)cc1 (stereo not drawn) [AC1]
–,–,low micromolar,COc1cc(C(C)OC(=O)NC(CCCCNC(=O)CCC2(C)N=N2)C(=O)NCCCCCNC(=O)CCCCC2SCC3NC(=O)NC32)c([N+](=O)[O-])cc1OCCCC(=O)NCc1ccc(COc2nc(N)nc3[nH]cnc23)cc1 (stereo not drawn) [PP1]
